PubChem BioAssay AID248 (DTP/NCI, 2004)
Values joined by “and” are separate entries in the source; they are usually repeats but may differ in a detail not shown here. Equal values may be shown once. Toxic doses and inconclusive results are not listed.

Test system: L1210 leukemia ip in BDF1 mice, survival T/C
Experiment: NCI In Vivo Anticancer Drug Screen. Data for tumor model L1210 Leukemia (intraperitoneal) in B6D2F1 (BDF1) mice
Conditions: endpoint: mean survival time, higher = longer survival
In short: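 Read-out is survival time, reported as the treated-group measurement over the vehicle-control measurement.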

SMILES: CS(=O)(=O)OCCCNCCCOS(C)(=O)=O
- T/C (dose: 3.0 mg/kg/injection, schedule: Q03HX024 (ip), vehicle: saline): 122 % of control
- T/C (dose: 5.0 mg/kg/injection, schedule: Q03HX008 (ip), vehicle: saline): 119 % of control
- T/C (dose: 5.0 mg/kg/injection, schedule: Q03HX024 (ip), vehicle: saline): 152 % of control
- T/C (dose: 8.4 mg/kg/injection, schedule: Q01DX009 (ip), vehicle: saline): 160 % of control and 173 % of control
- T/C (dose: 8.4 mg/kg/injection, schedule: Q03HX008 (ip), vehicle: saline): 150 % of control
- T/C (dose: 8.4 mg/kg/injection, schedule: Q03HX016 (ip), vehicle: saline): 156 % of control
- T/C (dose: 8.4 mg/kg/injection, schedule: Q03HX024 (ip), vehicle: saline): 155 % of control and 245 % of control
- T/C (dose: 14.0 mg/kg/injection, schedule: Q01DX009 (oral), vehicle: saline): 100 % of control
- T/C (dose: 14.0 mg/kg/injection, schedule: Q01DX015 (ip), vehicle: saline): 155 % of control
- T/C (dose: 14.0 mg/kg/injection, schedule: Q03HX008 (ip), vehicle: saline): 166 % of control and 239 % of control
- T/C (dose: 14.0 mg/kg/injection, schedule: Q03HX016 (ip), vehicle: saline): 188 % of control and 303 % of control
- T/C (dose: 14.0 mg/kg/injection, schedule: Q03HX024 (ip), vehicle: saline): 332 % of control and 344 % of control
- T/C (dose: 20.0 mg/kg/injection, schedule: Q01DX009 (ip), vehicle: saline): 164 % of control and 179 % of control
- T/C (dose: 21.0 mg/kg/injection, schedule: Q01DX015 (ip), vehicle: saline): 155 % of control
- T/C (dose: 23.0 mg/kg/injection, schedule: Q01DX009 (oral), vehicle: saline): 115 % of control
- T/C (dose: 23.0 mg/kg/injection, schedule: Q03HX008 (ip), vehicle: saline): 184 % of control and 327 % of control
- T/C (dose: 23.0 mg/kg/injection, schedule: Q03HX016 (ip), vehicle: saline): 244 % of control and 440 % of control
- T/C (dose: 23.0 mg/kg/injection, schedule: Q04DX003 (iv), vehicle: saline): 98 % of control
- T/C (dose: 25.0 mg/kg/injection, schedule: Q01DX001 (ip), vehicle: saline): 115 % of control
- T/C (dose: 36.0 mg/kg/injection, schedule: Q01DX015 (ip), vehicle: saline): 242 % of control
- T/C (dose: 39.0 mg/kg/injection, schedule: Q01DX003 (ip), vehicle: saline): 164 % of control and 170 % of control
- T/C (dose: 39.0 mg/kg/injection, schedule: Q01DX005 (ip), vehicle: saline): 190 % of control
- T/C (dose: 39.0 mg/kg/injection, schedule: Q01DX009 (sc), vehicle: saline): 120 % of control
- T/C (dose: 39.0 mg/kg/injection, schedule: Q04DX003 (ip), vehicle: clinical formulation): 157 % of control
- T/C (dose: 39.0 mg/kg/injection, schedule: Q04DX003 (ip), vehicle: saline): 212 % of control
- T/C (dose: 39.0 mg/kg/injection, schedule: Q04DX003 (iv), vehicle: saline): 87 % of control
- T/C (dose: 39.0 mg/kg/injection, schedule: Q08DX002 (ip), vehicle: saline): 200 % of control
- T/C (dose: 40.0 mg/kg/injection, schedule: Q01DX009 (ip), vehicle: saline): 178 % of control and 188 % of control
- T/C (dose: 60.0 mg/kg/injection, schedule: Q01DX015 (ip), vehicle: saline): 159 % of control
- T/C (dose: 65.0 mg/kg/injection, schedule: Q01DX001 (ip), vehicle: saline): 160 % of control
- T/C (dose: 65.0 mg/kg/injection, schedule: Q01DX001 (oral), vehicle: saline): 109 % of control
- T/C (dose: 65.0 mg/kg/injection, schedule: Q01DX003 (ip), vehicle: saline): 241 % of control
- T/C (dose: 65.0 mg/kg/injection, schedule: Q01DX005 (ip), vehicle: saline): 402 % of control
- T/C (dose: 65.0 mg/kg/injection, schedule: Q01DX009 (oral), vehicle: saline): 106 % of control
- T/C (dose: 65.0 mg/kg/injection, schedule: Q04DX003 (ip), vehicle: clinical formulation): 159 % of control
- T/C (dose: 65.0 mg/kg/injection, schedule: Q04DX003 (ip), vehicle: saline): 299 % of control and 445 % of control
- T/C (dose: 65.0 mg/kg/injection, schedule: Q04DX003 (ip), vehicle: water): 173 % of control
- T/C (dose: 65.0 mg/kg/injection, schedule: Q04DX003 (iv), vehicle: saline): 109 % of control
